# From patent US20240245673A1, “Papain-like protease (PLpro) inhibitors” (Pfizer Inc., priority 2022, published 2024)
# Target: SARS-CoV-2 Papain like protease (PLpro) (Severe acute respiratory syndrome coronavirus 2 (2019-nCoV) (SARS-CoV-2), UniProt P0DTD1)
# Test: Papain Like Protease (PLpro) biochemical assay with profluorogenic substrate Z-RLRGG-AMC
# Settings: IC50 (μM), SARS-CoV-2 PLpro 6.25 nM, 25 μM Z-RLRGG-AMC substrate, 60 minute reaction
row,Structure (SMILES),IC50 [µM]
1,"Cc1ccc(N2CC3CC(C2)N3C)cc1C(=O)N[C@H](C)c1cc(-c2cnn(C)c2)nc2ccccc12 [Example 252, 2-methyl-N—((R)-1-(2-(1-methyl-1H-pyrazol-4-yl)quinolin-4-yl)ethyl)-5-(6-methyl-3,6-diazabicyclo[3.1.1]heptan-3-yl)benzamide]",0.005
2,"Cc1cnc(N2CC3CCC(C2)N3C)cc1C(=O)NC1(c2cc(-c3cnn(C)c3)nc3ccccc23)CC1 [Example 287, 5-methyl-N-(1-(2-(1-methyl-1H-pyrazol-4-yl)quinolin-4-yl)cyclopropyl)-2-(8-methyl-3,8-diazabicyclo[3.2.1]octan-3-yl)isonicotinamide]",0.002
3,"Cc1cc(COCc2cscn2)ccc1C(=O)N[C@H](C)c1cc(-c2cnn(C)c2)nc2ccccc12 [Example 274, (R)-2-methyl-N-(1-(2-(1-methyl-1H-pyrazol-4-yl)quinolin-4-yl)ethyl)-4-((thiazol-4-ylmethoxy)methyl)benzamide]",0.002

# Same assay, conditions: SARS-CoV-2 PLpro 6.25 nM, 25 μM Z-RLRGG-AMC substrate, 60 minute reaction; read-out: IC50
row,Structure (SMILES),IC50 [µM]
1,"CCOC(=O)[C@H]1O[C@@H]1C(=O)NNC(=O)CCc1ccccc1C(=O)N[C@H](C)c1cc(-c2cnn(C)c2)nc2ccccc12 [Example 227, ethyl (2S,3S)-3-(2-(3-(2-(((R)-1-(2-(1-methyl-1H-pyrazol-4-yl)quinolin-4-yl)ethyl)carbamoyl)phenyl)propanoyl)hydrazine-1-carbonyl)oxirane-2-carboxylate]",0.002
2,"COC[C@@H](OCc1cocn1)c1ccc(C(=O)NC2(c3cc(-c4cc(C(=O)N(C)C)n[nH]4)cc4ncccc34)CC2)c(C)c1 (single isomer, unassigned) [Example 360]",0.001
3,"CNC(=O)Cc1ccc(C(=O)N[C@H](C)c2cc(-c3cnn(C)c3)nc3ccccc23)c(C)c1 [Example 259, (R)-2-methyl-N-(1-(2-(1-methyl-1H-pyrazol-4-yl)quinolin-4-yl)ethyl)-4-(2-(methylamino)-2-oxoethyl)benzamide]",0.147
4,"Cc1cc(CC(=O)Nc2ncsc2C)ccc1C(=O)N[C@H](C)c1cc(-c2cnn(C)c2)nc2ccccc12 [Example 298, (R)-2-methyl-N-(1-(2-(1-methyl-1H-pyrazol-4-yl)quinolin-4-yl)ethyl)-4-(2-((5-methylthiazol-4-yl)amino)-2-oxoethyl)benzamide]",< 0.001
5,"Cc1ccccc1C(=O)N[C@H](C)c1cc(Nc2ccn(C)n2)nc2ccccc12 [Example 38, (R)-2-methyl-N-(1-(2-((1-methyl-1H-pyrazol-3-yl)amino)quinolin-4-yl)ethyl)benzamide]",1.63
6,"Cc1ccccc1C(=O)NC(C)c1cc(-c2cc(C3CC3)nn2C)nc2ccccc12 (centres unmarked) [Example 107, N-{1-[2-(3-cyclopropyl-1-methyl-1H-pyrazol-5-yl)quinolin-4-yl]ethyl}-2-methylbenzamide]",0.757
7,"Cc1cc(CC(=O)N(C)C)ccc1C(=O)N[C@H](C)c1cc(-c2cnn(C)c2)nc2ccccc12 [Example 260, (R)-4-(2-(dimethylamino)-2-oxoethyl)-2-methyl-N-(1-(2-(1-methyl-1H-pyrazol-4-yl)quinolin-4-yl)ethyl)benzamide]",0.244
8,"Cc1cc(COCc2cocn2)ccc1C(=O)NC1(c2cc(-c3cnn(C)c3)cc3ncccc23)CC1 [Example 345, 2-methyl-N-(1-(7-(1-methyl-1H-pyrazol-4-yl)quinolin-5-yl)cyclopropyl)-4-((oxazol-4-ylmethoxy)methyl)benzamide]",< 0.001
9,"Cc1ccccc1C(=O)NC(C)c1cc(-c2cn(C)nc2C(F)(F)F)nc2ccccc12 (centres unmarked) [Example 132, 2-methyl-N-(1-{2-[1-methyl-3-(trifluoromethyl)-1H-pyrazol-4-yl]quinolin-4-yl}ethyl) benzamide]",0.844
10,"COC(=O)c1c[nH]c(-c2cc([C@@H](C)NC(=O)c3cc(CN)ccc3C)c3ccccc3n2)c1 [Example 19, methyl(R)-5-(4-(1-(5-(aminomethyl)-2-methylbenzamido)ethyl)quinolin-2-yl)-1H-pyrrole-3-carboxylate]",0.015
11,Cc1cc(C(=O)NCc2nccn2C)ccc1C(=O)NC1(c2cc(-c3cnn(C)c3)nc3ccccc23)CC1 [Example 253],0.006
12,"Cc1cc(C(C)NC(=O)c2cscn2)ccc1C(=O)N[C@H](C)c1cc(-c2cnn(C)c2)nc2ccccc12 (stereo partly drawn) [Example 269, N-(1-(3-methyl-4-(((R)-1-(2-(1-methyl-1H-pyrazol-4-yl)quinolin-4-yl)ethyl)carbamoyl)phenyl)ethyl)thiazole-4-carboxamide]",0.041
13,"Cc1cc(C(C)NC(=O)c2ncc[nH]2)ccc1C(=O)N[C@H](C)c1cc(-c2cnn(C)c2)nc2ccccc12 (stereo partly drawn) [Example 270, N-(1-(3-methyl-4-(((R)-1-(2-(1-methyl-1H-pyrazol-4-yl)quinolin-4-yl)ethyl)carbamoyl)phenyl)ethyl)-1H-imidazole-2-carboxamide]",0.037
14,"Cc1ccccc1C(=O)NC(C)c1cc(-c2cncc(F)c2)nc2ccccc12 (centres unmarked) [Example 137, N-{1-[2-(5-fluoropyridin-3-yl)quinolin-4-yl]ethyl}-2-methylbenzamide]",1.13
15,Cc1cc(C(=O)NC(C)(C)c2ncc[nH]2)ccc1C(=O)N[C@H](C)c1cc(-c2cnn(C)c2)nc2ccccc12 [Example 244],0.167
16,"Cc1ccc(N2CCN(C)CC2)cc1C(=O)NC(C)c1cc(-c2cnn(C)c2)cc2ccccc12 (centres unmarked) [Example 73, 2-methyl-N-(1-(3-(1-methyl-1H-pyrazol-4-yl)naphthalen-1-yl)ethyl)-5-(4-methylpiperazin-1-yl)benzamide]",0.022

row,Structure (SMILES),IC50 [µM]
1,"Cc1ccccc1C(=O)NC(C)c1cc(-c2cc(C(C)C)no2)nc2ccccc12 (centres unmarked) [Example 124, 2-methyl-N-(1-{2-[3-(propan-2-yl)-1,2-oxazol-5-yl]quinolin-4-yl}ethyl)benzamide]",0.635
2,"CNCc1ccc(C)c(C(=O)N[C@H](C)c2cc(-c3cc(C(=O)OC)c[nH]3)nc3ccccc23)c1 [Example 57, methyl (R)-5-(4-(1-(2-methyl-5-((methylamino)methyl)benzamido)ethyl)quinolin-2-yl)-1H-pyrrole-3-carboxylate]",0.013
3,"Cc1ccc(NC(=O)[C@H]2CCCCN2)cc1C(=O)N[C@H](C)c1cc(N)nc2ccccc12 (single isomer, unassigned) [Example 27, (R)—N-(3-(((R*)-1-(2-aminoquinolin-4-yl)ethyl)carbamoyl)-4-methylphenyl)piperidine-2-carboxamide]",0.057
4,"COC[C@H](OCc1cscn1)c1ccc(C(=O)N[C@H](C)c2cc(-c3cnn(C)c3)nc3ccccc23)c(C)c1 (single isomer, unassigned) [Example 333, 4-((R*)-2-methoxy-1-(thiazol-4-ylmethoxy)ethyl)-2-methyl-N-((R)-1-(2-(1-methyl-1H-pyrazol-4-yl)quinolin-4-yl)ethyl)benzamide]",< 0.001
5,"CNC(=O)c1c[nH]c(-c2cc([C@@H](C)NC(=O)c3cc(CN)ccc3C)c3ccccc3n2)c1 [Example 22, (R)-5-(4-(1-(5-(aminomethyl)-2-methylbenzamido)ethyl)quinolin-2-yl)-N-methyl-1H-pyrrole-3-carboxamide]",0.017
6,"Cc1ccc(C(N)=O)cc1C(=O)NC(C)c1cc(-n2nccn2)cc2ccccc12 (centres unmarked) [Example 2, N^1-(1-(3-(2H-1,2,3-triazol-2-yl)naphthalen-1-yl)ethyl)-6-methylisophthalamide]",1.37
7,"Cc1cc(-c2cc(C(C)NC(=O)c3ccccc3C)c3ccccc3n2)c[nH]1 (centres unmarked) [Example 117, 2-methyl-N-{1-[2-(5-methyl-1H-pyrrol-3-yl)quinolin-4-yl]ethyl}benzamide]",0.412
8,"COC(=O)c1c[nH]c(-c2cc(C(C)NC(=O)c3cc(N4CCN(C)CC4)ccc3C)c3ccccc3c2)c1 (centres unmarked) [Example 228, methyl 5-(4-(1-(2-methyl-5-(4-methylpiperazin-1-yl)benzamido)ethyl)naphthalen-2-yl)-1H-pyrrole-3-carboxylate]",0.007
9,"Cc1ccccc1C(=O)NC(C)c1cc(NCC(=O)N2CCOCC2)nc2ccccc12 (centres unmarked) [Example 146, 2-methyl-N-[1-(2-{[2-(morpholin-4-yl)-2-oxoethyl]amino}-quinolin-4-yl)ethyl]benzamide]",4.5
10,"CO/C=C/C(=O)NNC(=O)CCc1ccccc1C(=O)N[C@H](C)c1cc(-c2cnn(C)c2)nc2ccccc12 [Example 222, (R,E)-2-(3-(2-(3-methoxyacryloyl)hydrazineyl)-3-oxopropyl)-N-(1-(2-(1-methyl-1H-pyrazol-4-yl)quinolin-4-yl)ethyl)benzamide]",1.98
11,"Cc1ccccc1C(=O)N[C@H](C)c1cc(-c2cnoc2)nc2ccccc12 [Example 58, (R)-N-(1-(2-(isoxazol-4-yl)quinolin-4-yl)ethyl)-2-methylbenzamide]",100
12,"Cc1cc(COCc2ncsc2CO)ccc1C(=O)NC1(c2cc(-c3cnn(C)c3)nc3ccccc23)CC1 [Example 330, 4-(((5-(hydroxymethyl)thiazol-4-yl)methoxy)methyl)-2-methyl-N-(1-(2-(1-methyl-1H-pyrazol-4-yl)quinolin-4-yl)cyclopropyl)benzamide]",< 0.001
13,"Cc1ccccc1C(=O)NC(C)c1cc(-c2cnn3cccnc23)nc2ccccc12 (centres unmarked) [Example 131, 2-methyl-N-{1-[2-(pyrazolo [1,5-a]pyrimidin-3-yl)quinolin-4-yl]ethyl}benzamide]",2.91
14,"Cc1ccc(NC(=O)[C@H]2CCCCN2)cc1C(=O)N[C@H](C)c1cc(-c2ccn[nH]2)cc2ccccc12 (single isomer, unassigned) [Example 68]",0.009
15,"Cc1cc(C[S+]([O-])Cc2nccn2C)ccc1C(=O)N[C@H](C)c1cc(-c2cnn(C)c2)nc2ccccc12 (stereo partly drawn) [Example 283, 2-methyl-4-((((1-methyl-1H-imidazol-2-yl)methyl)sulfinyl)methyl)-N—((R)-1-(2-(1-methyl-1H-pyrazol-4-yl)quinolin-4-yl)ethyl)benzamide]",0.005
16,"Cc1ccc(CN)cc1C(=O)N[C@H](C)c1cc(-c2cc(C(N)=O)c[nH]2)nc2ccccc12 [Example 21, (R)-5-(4-(1-(5-(aminomethyl)-2-methylbenzamido)ethyl)quinolin-2-yl)-1H-pyrrole-3-carboxamide]",0.016
